In US11213583B2, “Methods and compositions for treating cancer and infectious diseases” (Cedars-Sinai Medical Center, priority 2014, dated 2022):

Key:
CD8 lymphocytes (IFN-γ) = test: Tumor-specific IFN-γ response of lymphocytes harvested on day 45, RENCA model; assay type: in vivo, mice; settings: lymphocytes harvested day 45, restimulated with CA9 peptide
Experimental: (§1) (a) RENCA-CA9 tumor cells were implanted into Balb/C mice (n=5 per group) on day 0. CD4 lymphocytes were depleted with αCD4 antibody on days 6 and 10. Mice were treated with daily temsirolimus on days 14 to 34. Tumor growth was monitored. Results are representative of triplicate experiments. (b) In the same experiment, lymphocytes were harvested on day 45, restimulated with CA9 peptide, and stained for CD8 and IFNγ. (c) Following CD4 depletion, spleen, lymph node and blood were collected on days 0, 1, 10. Lymphocytes were stained for CD4, CD8 and FoxP3 and analyzed by flow cytometry. (c-e) The percentages of CD4 cells in the spleen, lymph node and blood on days 0, 1, and 10 following CD4 depletion are reported. (d) Following CD4 depletion, percentages of splenocytes that are CD4 or CD8 positive are reported, and percent of CD4 cells that are FoxP3 positive is reported. (e) In the same experiment, the absolute numbers of splenocytes positive for CD4, CD8, and CD4/FoxP3 are reported. *p<0.05, **p<0.01,***p<0.005.
In the same experiment, lymphocytes were harvested on day 45 and assessed for tumor-specific IFN-γ response (FIG. 2b). In tumor-bearing mice that received no treatment, there was no IFN-γ response. […] To characterize the CD4 lymphocyte depletion in response to αCD4, naïve mice were treated with a single dose of αCD4.

Pmel-1 lymphocytes = test: Flow cytometry of adoptively transferred Thy1.1 Pmel-1 lymphocytes after DC vaccine and temsirolimus; settings: with DC vaccine
RENCA tumor cells = settings: Wang et al. Br J Cancer 2011; cited from earlier work
RENCA tumors = test: RENCA tumor treatment model in Balb/c mice; assay type: in vivo; settings: αCD4 days 6 and 10; temsirolimus daily days 14 to 34; no cancer vaccine
Experimental: as §1
Furthermore, the presence of tumor itself increased Tregs (FIG. 8). Therefore, we hypothesized that the antitumor immunity induced by mTOR inhibition can be further enhanced by targeting Tregs. Currently there is no clinical strategy to selectively remove Tregs; however, it is feasible to deplete all CD4 lymphocytes. However, CD4 effector cells are required for immune activation. […]

[1] = tested on: CD4+FoxP3+ lymphocytes / CTL function; test: Treg depletion with diphtheria toxin in DEREG mice, in vivo CTL assay

Compound | tumor-specific IFN-γ response (CD8 lymphocytes (IFN-γ)) | Eomes expression in Pmel-1 lymphocytes (Pmel-1 lymphocytes) | Tbet expression in Pmel-1 lymphocytes (Pmel-1 lymphocytes) | Tregs (Pmel-1 lymphocytes) | growth of RENCA tumor cells in vitro (RENCA tumor cells) | RENCA tumor growth (RENCA tumors) | CD4+FoxP3+ lymphocytes [1]
CO[C@H]1C[C@@H]2CC[C@@H](C)[C@@](O)(O2)C(=O)C(=O)N2CCCC[C@H]2C(=O)O[C@H]([C@H](C)C[C@@H]2CC[C@@H](OC(=O)C(C)(CO)CO)[C@H](OC)C2)CC(=O)[C@H](C)/C=C(\C)[C@@H](O)[C@@H](OC)C(=O)[C@H](C)C[C@H](C)/C=C/C=C/C=C/1C [temsirolimus] | some IFN-γ response | increased expression of Eomes | decrease in Tbet expression | increase in Tregs | directly inhibit the growth of RENCA tumor cells in vitro | effective in decreasing tumor growth | –
diphtheria toxin [DT] | – | – | – | – | – | – | removed nearly all CD4+FoxP3+ lymphocytes
